Test results from paper PMC6359144 (International Journal of Molecular Sciences, 2019).
Read-outs that look alike come from different tables or passages of the source.

Tests used:
[1] = test system: 518A2 melanoma cells; test: MTT assay, 518A2 melanoma cells; format: cell-based, human; details: for IC50: Homo sapiens, MTT, mean ± SD of four experiments; for effect on viability of 518A2 melanoma cells: concentrations as high as 50 µM; for IC50 after 72 h compared with IC50 after 24 h: 518A2 melanoma cells, fold lower
Procedure: (§1) HT-29 (ACC-299), HCT-116 (ACC-581) and DLD-1 (ACC-278) colon carcinoma, MCF-7 (ACC-115) breast carcinoma, KB-V1 (ACC-149), 518A2 (Department of Radiotherapy and Radiobiology, University Hospital Vienna) melanoma and Ea.Hy926 (ATCC no. CRL-2922) HUVEC derived endothelial hybrid cells line were grown in Dulbecco’s Modified Eagle Medium (DMEM; Biochrom), high glucose supplemented with 10% (v/v) fetal bovine serum (FBS; Biochrom.) and 1% (v/v) Antibiotic-Antimycotic solution (anti-anti; Thermo Scientific). HDFa human dermal fibroblasts (ATCC: PCS-201-012™) were grown in DMEM supplemented with 10% FBS, 1% anti-anti and 2 mM glutamine. The cells were incubated at 37 °C, 5% CO2, 95% humidified atmosphere. By repeated addition of topotecan or vinblastine at the maximum tolerated dose to the cell medium of MCF-7 and KB-V1 cells, the cells were rendered multidrug-resistant, indicated as MCF-7^Topo and KB-V1^Vbl, respectively. They were serially passaged following trypsinization by using 0.05% trypsin/0.02% EDTA (Biochrom). Mycoplasma contamination was routinely monitored, and only mycoplasma–free cultures were used.
(§2) MTT [3-(4,5-dimethylthiazol-2-yl)-2,5-diphenyltetrazolium bromide] (ABCR) was used to determine the cytotoxicity of test compounds as previously described. Briefly, HDFa human dermal fibroblasts and Ea.Hy926 endothelial hybrid cells (both 1 × 10^5 cells/mL, 100 µL/well), 518A2 melanoma, KB-V1^Vbl cervix carcinoma, MCF-7^Topo breast carcinoma, HT-29, DLD-1 and HCT-116 colon carcinoma (all 5 × 10^4 cells/mL, 100 µL/well) were grown in 96-well culture plates for 24 h. Then, various concentrations of the test compounds were added and the cells were incubated for 24-72 h at 37 °C. After adding 12.5 µL of a 0.5% MTT solution in PBS (final concentration 0.05%) to cell medium, microplates were incubated for 2 h and subsequently swiftly turned to discard the medium. The precipitate of formazan crystals was then dissolved in a 10% solution of SDS in DMSO containing 0.6% acetic acid. To ensure complete dissolution of formazan, microplates were incubated for at least 4 h at 37 °C. Finally, the absorbance at λ = 570 nm (formazan) and 630 nm (background) was measured using a microplate reader (Tecan F200). All experiments were carried out in quadruplicate and the percentage of viable cells was calculated as the mean ± SD with controls set to 100%. Selected graphs of MTT assays can be found in the Supporting Information (Figure S8).

[2] = test system: HT-29 colon carcinoma cells; test: MTT assay, HT-29 colon carcinoma cells; format: cell-based, human; details: for IC50: Homo sapiens, MTT; for effect on viability of HT-29 colon carcinoma cells: concentrations as high as 50 µM
Procedure: as §1, §2

[3] = test system: KB-V1^Vbl cervix carcinoma cells; test: MTT assay, KB-V1^Vbl cervix carcinoma cells; format: cell-based; details: Homo sapiens, read-out: IC50 KB-V1^Vbl (72 h)
Procedure: as §1, §2

[4] = test system: MCF-7^Topo breast adenocarcinoma cells; test: MTT assay, MCF-7^Topo breast carcinoma cells; format: cell-based; details: Homo sapiens, MCF7/Topo, read-out: IC50 MCF-7^Topo (72 h)
Procedure: as §1, §2

[5] = test system: Ea.Hy926 endothelial hybrid cells; test: MTT assay, Ea.Hy926 endothelial hybrid cells; format: cell-based; details: Homo sapiens, EA.hy 926, read-out: IC50 Ea.Hy926 (72 h)
Procedure: as §1, §2

[6] = test system: HCT-116 colon carcinoma cells; test: MTT assay, HCT-116 colon carcinoma cells; format: cell-based; details: Homo sapiens, HCT-116, read-out: IC50 HCT-116 (72 h)
Procedure: as §1, §2

[7] = test system: DLD-1 colon carcinoma cells; test: MTT assay, DLD-1 colon carcinoma cells; format: cell-based; details: Homo sapiens, DLD-1, read-out: IC50 DLD-1 (72 h)
Procedure: as §1, §2

[8] = test system: MCF-7^Topo breast adenocarcinoma cells; parameters: method as in earlier work; details: read-out: IC50 MCF-7^Topo (72 h), MTT, and 34; cited from earlier work
[9] = biological target: T1, purified pig brain tubulin (Sus scrofa, UniProt P02550+P02554); test: Turbidimetric cell-free tubulin polymerization assay; format: biochemical; details: 10 µM, 340 nm
T1 construct: using purified pig brain tubulin; from tissue; host or cells: pig brain
Procedure: An amount of 50 µL of Brinkley’s buffer 80 (BRB80) supplemented with 20% glycerol and 3 mM GTP was given in a black 96-well half-area plate with clear bottom. Then, test compounds 4d–f (final concentration: 5 µM, or 10 µM) or vehicle (DMSO) were added. After adding 50 µL tubulin in BRB80 (10 mg/mL) was pipetted in the wells and immediately placed in a pre-heated microplate reader (Tecan). The polymerization was determined turbidimetrically at 37 °C by measuring the absorption at 340 nm for 120 min in intervals of 5 min. Values were normally distributed for each group (Shapiro–Wilk test, p > 0.05) and there was homogeneity of variance (Levene’s test, p > 0.05).

[10] = test system: HT-29 colon carcinoma cells; parameters: method as in earlier work; details: read-out: IC50 HT-29 (72 h), MTT, and 34; cited from earlier work
[11] = test system: 518A2 melanoma cells; parameters: method as in earlier work; details: read-out: IC50 518A2 (72 h), MTT, and 34; cited from earlier work
[12] = test system: Ea.Hy926 endothelial hybrid cells; parameters: method as in earlier work; details: read-out: IC50 Ea.Hy926 (72 h), MTT, and 34; cited from earlier work
[13] = test system: HCT-116 colon carcinoma cells; parameters: method as in earlier work; details: read-out: IC50 HCT-116 (72 h), MTT, and 34; cited from earlier work
[14] = 518A2, read-out: IC50 518A2 (72 h), 72 h
[15] = 518A2, 24 h, read-out: IC50 518A2 (24 h)
[16] = HT-29, read-out: IC50 HT-29 (72 h), 72 h
[17] = HT-29, 24 h, read-out: IC50 HT-29 (24 h)

T1 sequence (P02554 whole entry): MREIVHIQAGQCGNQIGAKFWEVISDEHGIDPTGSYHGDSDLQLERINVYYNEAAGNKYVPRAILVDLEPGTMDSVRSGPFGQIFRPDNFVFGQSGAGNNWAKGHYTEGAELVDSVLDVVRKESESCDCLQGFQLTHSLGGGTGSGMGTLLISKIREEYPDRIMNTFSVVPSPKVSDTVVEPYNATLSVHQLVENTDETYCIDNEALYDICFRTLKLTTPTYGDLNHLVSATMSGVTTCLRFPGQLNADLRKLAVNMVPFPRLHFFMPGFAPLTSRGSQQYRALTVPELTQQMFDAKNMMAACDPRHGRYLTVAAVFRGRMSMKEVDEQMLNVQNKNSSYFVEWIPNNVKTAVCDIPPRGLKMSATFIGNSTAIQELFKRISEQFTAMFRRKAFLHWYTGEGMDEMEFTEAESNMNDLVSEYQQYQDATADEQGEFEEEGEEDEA
T1 sequence (P02550 whole entry): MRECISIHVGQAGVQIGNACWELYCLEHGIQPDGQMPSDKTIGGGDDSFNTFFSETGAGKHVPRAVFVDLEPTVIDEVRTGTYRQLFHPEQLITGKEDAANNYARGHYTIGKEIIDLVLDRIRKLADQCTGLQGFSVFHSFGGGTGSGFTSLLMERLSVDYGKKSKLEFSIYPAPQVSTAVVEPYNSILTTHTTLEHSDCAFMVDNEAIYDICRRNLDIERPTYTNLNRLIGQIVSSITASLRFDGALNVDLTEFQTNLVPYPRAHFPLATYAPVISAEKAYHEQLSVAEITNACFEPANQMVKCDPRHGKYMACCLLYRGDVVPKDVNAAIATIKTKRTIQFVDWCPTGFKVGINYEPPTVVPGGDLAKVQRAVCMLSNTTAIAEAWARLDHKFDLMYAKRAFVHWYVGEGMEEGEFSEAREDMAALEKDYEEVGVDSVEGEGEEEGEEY

CCOC(=O)CCCOc1cc(-c2ocnc2-c2cc(OC)c(OC)c(OC)c2)ccc1OC [3g, Ethyl 4-[1-methoxy-4-(4’-(3’’,4’’,5’’-trimethoxyphenyl)oxazol-5’-yl)-2-phenoxy]butyrate]
IC50 [1, 14]: > 50 µM | IC50 [1, 15]: > 100 µM | effect on viability of 518A2 melanoma cells [1]: did not affect the viability | IC50 [2, 16]: > 50 µM | IC50 [2, 17]: > 100 µM | effect on viability of HT-29 colon carcinoma cells [2]: did not affect the viability

COc1ccc(-c2ocnc2-c2cc(Cl)c(OC)c(OC)c2)cc1OCCCC(=O)NO [4a, N-Hydroxy-4-[1-methoxy-4-(4’-(3’’-chloro-4’’,5’’-dimethoxyphenyl)oxazol-5’-yl)-2-phenoxy]butanamide]
IC50 [3]: 0.15 ± 0.02 µM | IC50 [4]: 0.66 ± 0.14 µM | melting point: 171 to 172 °C | IC50 after 72 h compared with IC50 after 24 h [1]: about eight-fold | IC50 [1, 14]: 0.11 ± 0.01 µM | IC50 [1, 15]: 1.3 ± 0.4 µM | IC50 [5]: 0.0012 ± 0.0006 µM | IC50 [6]: 0.21 ± 0.01 µM | IC50 [7]: 0.34 ± 0.01 µM | IC50 [2, 16]: 2.9 ± 0.3 µM | IC50 [2, 17]: 2.5 ± 0.4 µM

COc1ccc(-c2ocnc2-c2cc(Cl)c(OC)c(OC)c2)cc1OCCCCC(=O)NO [4b, N-Hydroxy-5-[1-methoxy-4-(4’-(3’’-chloro-4’’,5’’-dimethoxyphenyl)oxazol-5’-yl)-2-phenoxy]pentanamide]
IC50 [3]: 4 ± 0.2 µM | IC50 [4]: 2.9 ± 0.8 µM | melting point: 202 °C | IC50 [1, 14]: 1 ± 0.1 µM | IC50 [1, 15]: 10.4 ± 5.1 µM | IC50 [5]: 0.57 ± 0.07 µM | IC50 [6]: 2.4 ± 0.1 µM | IC50 [7]: 3.2 ± 0.1 µM | IC50 [2, 16]: 3.6 ± 0.1 µM | IC50 [2, 17]: 4.2 ± 0.2 µM

COc1ccc(-c2ocnc2-c2cc(Cl)c(OC)c(OC)c2)cc1OCCCCCC(=O)NO [4c, N-Hydroxy-6-[1-methoxy-4-(4’-(3’’-chloro-4’’,5’’-dimethoxyphenyl)oxazol-5’-yl)-2-phenoxy]hexanamide]
IC50 [3]: 18.4 ± 3.4 µM | IC50 [4]: 6.1 ± 0.7 µM | melting point: 189 °C | IC50 [1, 14]: 2.2 ± 0.3 µM | IC50 [1, 15]: 9.4 ± 1.4 µM | IC50 [5]: 7.5 ± 0.5 µM | IC50 [6]: 6.5 ± 0.3 µM | IC50 [7]: 3.3 ± 0.5 µM | IC50 [2, 16]: 4.9 ± 0.3 µM | IC50 [2, 17]: 4.6 ± 0.3 µM

COc1ccc(-c2ocnc2-c2cc(OC)c(OC)c(OC)c2)cc1OCCCC(=O)NO [4g, N-Hydroxy-4-[1-methoxy-4-(4’-(3’’,4’’,5’’-trimethoxyphenyl)oxazol-5’-yl)-2-phenoxy]butanamide]
IC50 [3]: 2.7 ± 0.2 µM | IC50 [4]: 9.3 ± 0.8 µM | IC50 after 72 h compared with IC50 after 24 h [1]: about eight-fold | IC50 [1, 14]: 0.64 ± 0.07 µM | IC50 [1, 15]: 4.4 ± 0.1 µM | IC50 [5]: 0.41 ± 0.04 µM | IC50 [6]: 0.92 ± 0.12 µM | IC50 [7]: 0.92 ± 0.04 µM | IC50 [2, 16]: 2.8 ± 0.2 µM | IC50 [2, 17]: 5 ± 0.2 µM

COc1ccc(-c2ocnc2-c2cc(OC)c(OC)c(OC)c2)cc1OCCCCC(=O)NO [4h, N-Hydroxy-5-[1-methoxy-4-(4’-(3’’,4’’,5’’-trimethoxyphenyl)oxazol-5’-yl)-2-phenoxy]pentanamide]
IC50 [3]: 11.1 ± 1.6 µM | IC50 [4]: 39.6 ± 5.9 µM | melting point: 118 to 120 °C | IC50 [1, 14]: 5.6 ± 0.6 µM | IC50 [1, 15]: 21.6 ± 3.9 µM | IC50 [5]: 3.4 ± 0.2 µM | IC50 [6]: 3.4 ± 0.4 µM | IC50 [7]: 5.8 ± 0.4 µM | IC50 [2, 16]: 6.6 ± 0.6 µM | IC50 [2, 17]: 53.9 ± 12 µM

COc1ccc(-c2ocnc2-c2cc(OC)c(OC)c(OC)c2)cc1OCCCCCC(=O)NO [4i, N-Hydroxy-6-[1-methoxy-4-(4’-(3’’,4’’,5’’-trimethoxyphenyl)oxazol-5’-yl)-2-phenoxy]hexanamide]
IC50 [3]: 9 ± 0.3 µM | IC50 [4]: 15.8 ± 1.4 µM | IC50 [1, 14]: 3.3 ± 0.3 µM | IC50 [1, 15]: 6.9 ± 2.5 µM | IC50 [5]: 1.7 ± 0.1 µM | IC50 [6]: 0.61 ± 0.07 µM | IC50 [7]: 1.3 ± 0.1 µM | IC50 [2, 16]: 1.7 ± 0.1 µM | IC50 [2, 17]: 47.6 ± 10.6 µM

COc1ccc(-c2ocnc2-c2cc(OC)c(OC)c(OC)c2)cc1OCCCC(=O)O [4j, 4-[1-Methoxy-4-(4’-(3’’,4’’,5’’-trimethoxyphenyl)oxazol-5’-yl)-2-phenoxy]butyric acid]
IC50 [1, 14]: > 50 µM | IC50 [1, 15]: > 100 µM | effect on viability of 518A2 melanoma cells [1]: did not affect the viability | IC50 [2, 16]: > 100 µM | IC50 [2, 17]: > 100 µM | effect on viability of HT-29 colon carcinoma cells [2]: did not affect the viability

COc1ccc(/C=C\c2cc(OC)c(OC)c(OC)c2)cc1O [CA-4, Combretastatin A-4]
IC50 [8]: 0.5 ± 0.2 µM | inhibition of tubulin polymerization [9]: significant inhibition of tubulin polymerization | IC50 [10]: 3.6 ± 0.1 µM | IC50 [11]: 0.018 ± 0.007 µM | IC50 [12]: 0.011 ± 0.002 µM | IC50 [13]: 0.0026 ± 0.0002 µM
